This is an account of results in PubChem BioAssay AID1159564 (GlaxoSmithKline (GSK), 2015).

The test deals with L. donovani-infected THP-1 macrophages, intracellular amastigote imaging. The test is described as follows: intracellular L. donovani amastigote inhibition, imaging, THP-1 host macrophages, host toxicity (AID 1159564).
[1] abbreviates: measured here: THP-1 host cell toxicity.
The mark [2] stands for this setting: measured here: amastigotes per macrophage.

SMILES strings stand for the structures. Active and inactive are the calls of the source. How the calls were made is not given here.

One may read the IC50 as the concentration needed to halve the response being measured. As for `c1ccc(Nc2nc3ccccc3[nH]2)nc1`, the IC50 is 7.9 µM. The compound also had an IC50 under setting [1] of 25 µM. The same compound had an IC50 under setting [2] of 7.9 µM.

As for `CC(C)(C)C(O)(CCc1ccc(Cl)cc1)Cn1cncn1` (stereo unspecified), the IC50 was > 50 µM (inactive). Under setting [1], the half-maximal inhibitory concentration (IC50) was > 50 µM. The IC50 under setting [2] was > 50 µM.

For `COc1cccc(Nc2cc(C)nc(-c3ccccn3)n2)c1`, the IC50 was 2 µM. The IC50 under setting [1] was > 50 µM. Under setting [2], this compound gave an IC50 of 1.3 µM.

Take `COc1ccc(-c2cc(C)no2)cc1S(=O)(=O)Nc1ccc(C)c(C)c1`: the IC50 was 2.5 µM. In addition, the IC50 under setting [1] was > 50 µM. The IC50 under setting [2] was determined as 2 µM.

Turning to `O=C(CN(c1cccc(C(F)(F)F)c1)S(=O)(=O)c1ccc(Cl)cc1)NCc1ccc(F)c(F)c1`, the IC50 was > 50 µM (inactive). Further, the IC50 under setting [1] was determined as 20 µM. Under setting [2], the IC50 is > 50 µM.

For `CCCN1CCN(Cc2ccc(S(=O)(=O)Nc3cccc(C)c3)cc2)CC1`, the IC50 is > 50 µM (inactive). Also, the IC50 under setting [1] is > 50 µM. Besides, the IC50 under setting [2] was > 50 µM.

Take `Cc1nc(C(=O)Nc2ccc3c(c2)OCO3)nn1-c1ccc(F)cc1`: the IC50 was 7.9 µM. Also, the IC50 under setting [1] is > 50 µM. In addition, the IC50 under setting [2] was determined as 2.5 µM.

Turning to `N#Cc1ccc(S(=O)(=O)N2CCC3(CCN(c4ccccc4)C3=O)CC2)cc1`, the IC50 is > 50 µM (inactive). Besides, the IC50 under setting [1] was > 50 µM. In addition, under setting [2], the IC50 was > 50 µM.

Take `Cc1ccc(NC(=O)c2ccnc(N3CCCC3)c2)cc1-c1cc(C(N)=O)ccc1C`: the IC50 is 40 µM. Besides, under setting [1], the IC50 was 32 µM. In addition, the IC50 under setting [2] worked out at 25 µM.

In the case of `Cc1ccc(NC(C)C(=O)Nc2ccc(C#N)cc2)cc1S(=O)(=O)N1CCCCC1` (stereo unspecified), the IC50 is 10 µM. In addition, under setting [1], the IC50 is 50 µM. Further, the IC50 under setting [2] was 5 µM.

As to `CC1CCCCN1C(=O)NCCc1coc(-c2ccc(F)cc2)n1` (stereo unspecified), the IC50 was > 50 µM (inactive). Further, the IC50 under setting [1] is > 50 µM. Moreover, the IC50 under setting [2] is > 50 µM.

In the case of `Cc1cc(C#N)c([N+](=O)[O-])cc1Br`, the IC50 is 40 µM. The compound also yielded an IC50 under setting [1] of 25 µM. The same compound registered an IC50 under setting [2] of 32 µM.

As for `Cc1nnnn1-c1cccc(C(=O)N2CCC[C@@]3(C)c4ncncc4CCC23)c1` (stereo partly specified), the IC50 was > 50 µM (inactive). For the same compound, the IC50 under setting [1] was > 50 µM. The IC50 under setting [2] came out at 6.3 µM.

On to `CC(Cn1ccnc1)NC(=O)C=Cc1ccc(Cl)cc1` (stereo unspecified), for which the IC50 was > 50 µM (inactive). In addition, the IC50 under setting [1] is > 50 µM. The IC50 under setting [2] is > 50 µM.

For `CN(Cc1ccccc1)Cc1nnnn1C1CCN(Cc2ccc(-n3ccnc3)cc2)CC1`, the IC50 was > 50 µM (inactive). Under setting [1], this compound came in with a half-inhibitory concentration (IC50) of 32 µM. Moreover, under setting [2], the IC50 was > 50 µM.

As to `COc1ccc(NC(=O)c2ccc(NC(=O)CN(c3ccccc3C)S(C)(=O)=O)cc2)cc1`, the IC50 is > 50 µM (inactive). Further, under setting [1], the IC50 is > 50 µM. Under setting [2], the IC50 was 7.9 µM.

Regarding `O=C(Cc1ccccc1)Nc1ccccc1C(=O)Nc1nccs1`, the IC50 was > 50 µM (inactive). Besides, the IC50 under setting [1] was > 50 µM. The half-inhibitory concentration (IC50) under setting [2] was > 50 µM.

For the compound `COc1cccc(-c2cc(C(F)(F)F)nc(-n3ccc([N+](=O)[O-])n3)n2)c1`, the IC50 is > 50 µM (inactive). Under setting [1], the IC50 is > 50 µM. Also, under setting [2], the IC50 was > 50 µM.

On to `Oc1c(-c2n[nH]c(CCc3ccccc3)n2)ncc2cccnc12`, for which the IC50 is 4 µM. Also, the IC50 under setting [1] amounted to 20 µM. Moreover, the half-maximal inhibitory concentration (IC50) under setting [2] came out at 3.2 µM.

Take `Cc1occc1C(=O)Nc1ccccc1C(=O)Nc1nccs1`: the IC50 was > 50 µM (inactive). Under setting [1], the IC50 is > 50 µM. In addition, the IC50 under setting [2] was > 50 µM.

Take `N#Cc1cc(N2CCCC2=O)ccc1Sc1ccccc1CO`: the IC50 is > 50 µM (inactive). Under setting [1], the IC50 is > 50 µM. Besides, the IC50 under setting [2] is > 50 µM.

In the case of `COc1ccnc2[nH]cc(-c3cc(C(=O)N[C@H](CO)c4ccccc4)co3)c12`, the IC50 was 7.9 µM. The compound also came in with an IC50 under setting [1] of 0.79 µM. The IC50 under setting [2] worked out at 2 µM.

Consider `COc1ccc2c(Cl)c(C(=O)N3CCC3)sc2c1Cl`, for which the IC50 is > 50 µM (inactive). In addition, the IC50 under setting [1] was > 50 µM. The IC50 under setting [2] was > 50 µM.

Consider `O=C(NCCc1csc(-c2cccc(F)c2)n1)c1ccco1`, for which the IC50 is > 50 µM (inactive). The IC50 under setting [1] was > 50 µM. In addition, the IC50 under setting [2] is > 50 µM.

For the compound `O=C(N[C@H](CO)c1ccccc1)c1ccc(-c2c[nH]c3nccc(C(F)(F)F)c23)s1`, the IC50 is 25 µM. The same compound had an IC50 under setting [1] of 13 µM. This compound had an IC50 under setting [2] of 16 µM.

`CC(=O)Nc1ccc(Nc2nccc(-c3cnn4ncccc34)n2)cc1C(F)(F)F`: the IC50 is 0.025 µM. Moreover, the IC50 under setting [1] was 0.01 µM. The compound further returned an IC50 under setting [2] of 0.016 µM.

As to `CCc1nn(-c2ncc(F)c(NC(C)C)n2)c(N)c1C1CCCCC1`, the IC50 was 3.2 µM. The IC50 under setting [1] was 16 µM. The compound also returned an IC50 under setting [2] of 1.6 µM.
